Source: patent US12679845B2, “Crystal form of triazolopyridine-substituted indazole compound and preparation method therefor” (SHENZHEN OPTIMUM BIOLOGICAL TECHNOLOGY CO., LTD, priority 2021, dated 2026)

Experiments:
[1] = Solid stability test (XRPD) under high temperature, high humidity and strong light; format: physicochemical
Description: For samples placed under high temperature and high humidity conditions, the vial was sealed with aluminum foil punched with small holes to ensure that the samples could fully contact with the ambient air; for samples placed under strong light conditions, the vial was sealed with a threaded cap. The samples placed under different conditions were sampled and detected (XRPD) on day 5, day 10, and month 3, and the results were compared with the initial results on day 0.

[2] = Hygroscopicity study by dynamic vapor sorption (DVS); format: physicochemical; details: 25° C.; for Hygroscopic weight gain (ΔW): 80% RH compared to 0% RH
Protocol: • Instrument model: TA Discovery TGA 5500 thermal gravimetric analyzer • Test method: The sample (2 to 5 mg) is placed in a platinum pot and tested under the protection of 25 mL/min dry nitrogen, and the method is: heating from room temperature to 350° C. at a rate of 10° C./min. Dynamic Vapor Sorption (DVS) Method of the Present Disclosure • Instrument model: SMS (Surface Measurement Systems) dynamic vapor sorption analyzer • Test conditions: The sample (10 to 15 mg) is taken and placed in a DVS sample dish for testing.
The detailed DVS parameters are as follows: • Temperature: 25° C. • Equilibrium: dm/dt=0.002%/min (minimum: 10 min, maximum: 180 min) • Drying: drying for 120 min under 0% RH RH (%) Test Gradient: • 10% (0% RH to 90% RH, 90% RH to 0% RH) • 5% (90% RH to 95% RH, 95% RH to 90% RH) RH (%) • RH (%) test gradient range: 0% to 95%
SMS DVS Advantage dynamic vapor sorption analyzer
10 to 15 mg of the crystal form S of the compound of formula (I) was taken and placed in a DVS sample disk for testing.

[3] = In vivo PK study in Lewis female rats; details: rat, po 0.3 mg/kg, plasma
Protocol: The animals were weighed before administration, and the administration volume was calculated based on the body weight.
Approximately 0.2 mL of whole blood sample was collected at the specified time by jugular venipuncture (or other appropriate blood collection site), and the actual blood collection time was recorded in the experimental record. The acceptable error for the collection time point is ±1 minute within 1 hour after administration, and ±5% of the theoretical time for other time points. All blood samples were immediately transferred to labeled commercial centrifuge tubes containing K2-EDTA. After collection, the blood sample was centrifuged at 4° C., 3200 g for 10 minutes to aspirate the supernatant plasma, which was immediately placed in dry ice and then stored at −60° C. or lower for LC-MS/MS analysis.
The concentration of the test sample in plasma was determined by the LC-MS/MS bioanalytical method.

[4] = test system: MMTV transcriptional activity (GR); experiment: MMTV_GR transcriptional activation activity assay, luciferase reporter gene in HeLa cells; format: cell-based
Description: Experimental Example 2: In Vitro Assay of Compounds for Activation of MMTV Transcriptional Activity in Luciferase Reporter Gene Screening System
The mouse mammary tumor virus (MMTV) promoter contains specific binding sites that activate GR (GREs). To determine the activity of the compound, a reporter gene (luciferase) was inserted behind the MMTV promoter, and the structure was expressed in a stable manner in the genome of the HeLa cell line. The MMTV promoter was activated using the test compound to induce the luciferase expression, and its activity was detected by luminescence measurements.
The final DMSO experimental concentration was 0.1%.
MMTV_GR Transcriptional Activation Activity Assay
1) Cell inoculation: Fresh cells were inoculated into a 384-well white transparent bottom assay plate at 4×10^3 cells/30 μL/well and incubated in a 37° C., 5% CO2 incubator for 24 hours.
2) Compound preparation: The compound plate was configured before the start of the experiment. […]
4) 30 μL of Bright-Glo fluorescence assay reagent was transferred to the cell plate. […]
6) The fluorescence value was determined using an Envision plate reader. […]
The concentration curve of the test compound was plotted using the graphing software GraphPad Prism5, and the […] value was calculated.

SMILES	Crystal form (XRPD) ([1]; Day 0, initial)	Crystal form (XRPD) ([1]; High humidity (room temperature/relative humidity: 92.5%, open), Day 5)	Crystal form (XRPD) ([1]; High humidity (room temperature/relative humidity: 92.5%, open), Day 10)	Crystal form (XRPD) ([1]; High humidity (room temperature/relative humidity: 92.5%, open), Month 3)	Crystal form (XRPD) ([1]; High temperature (60° C., open), Day 5)	Crystal form (XRPD) ([1]; High temperature (60° C., open), Day 10)	Crystal form (XRPD) ([1]; High temperature (60° C., open), Month 3)	Crystal form (XRPD) ([1]; Strong light (5000 lx, sealed), Day 5)	Crystal form (XRPD) ([1]; Strong light (5000 lx, sealed), Day 10)	Crystal form (XRPD) ([1]; Strong light (5000 lx, sealed), Month 3)	Classification of hygroscopicity ([2]; 80% RH)	Hygroscopic weight gain (ΔW) ([2]; listed as crystal form Q of the compound of formula (I)) [%]	AUC [3] [µM·h]	Cmax [3] [µM]	Tmax [3] [h]	half-life [3] [h]	EC50 ([4]; Homo sapiens, 20 to 24 h, read-out: TA (MMTV transcriptional activation activity) EC50) [nM]	TA (MMTV transcriptional activation activity) Effect ([4]; positive control 1000 nM Dexamethasone) [%]	Hygroscopic weight gain (ΔW) [2] [%]
CC(C)[C@H](NC(=O)C(C)(F)F)[C@H](Oc1ccc2c(cnn2-c2ccc3nncn3c2)c1)c1ccccc1 [listing 1 of 2 here]	Crystal form Q	Crystal form Q	Crystal form Q	Crystal form Q	Crystal form Q	Crystal form Q	Crystal form Q	Crystal form Q	Crystal form Q	Crystal form Q	slightly hygroscopic	0.21	3.15	0.361	4.5	3.57	7.72	63.86	–
CC(C)[C@H](NC(=O)C(C)(F)F)[C@H](Oc1ccc2c(cnn2-c2ccc3nncn3c2)c1)c1ccccc1 [listing 2 of 2 here]	–	–	–	–	–	–	–	–	–	–	–	–	–	–	–	–	–	–	0.6
